# Test results reported in ChEMBL document CHEMBL1140434, “1,2,4-Triazolo[1,5-a]quinoxaline as a versatile tool for the design of selective human A3 adenosine receptor antagonists: synthesis, biological evaluation, and molecular modeling studies of 2-(hetero)aryl- and 2-carboxy-substituted derivatives” (J Med Chem, 2005).
# Experiments:
# [1] = target: T1, Adenosine receptor A1 (Bos taurus) (UniProt P28190); assay: Percentage inhibition of [3H]CHA binding to adenosine A1 receptor in bovine cerebral cortical membranes at 20 uM; type: cell membranes
# T1 sequence (whole entry): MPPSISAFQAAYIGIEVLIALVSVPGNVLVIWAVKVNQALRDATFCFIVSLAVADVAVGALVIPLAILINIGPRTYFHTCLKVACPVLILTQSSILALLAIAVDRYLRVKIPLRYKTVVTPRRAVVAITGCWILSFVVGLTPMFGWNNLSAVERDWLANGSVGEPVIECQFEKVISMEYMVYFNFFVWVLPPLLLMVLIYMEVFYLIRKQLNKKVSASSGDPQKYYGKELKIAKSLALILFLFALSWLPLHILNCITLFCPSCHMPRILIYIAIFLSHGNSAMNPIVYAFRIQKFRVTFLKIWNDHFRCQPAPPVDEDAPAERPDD
# [2] = tested on: Adenosine receptor A2a (Bos taurus); assay: Percentage inhibition of [3H]CGS 21680 binding to adenosine A2A receptor in bovine striatal membranes at 20 uM; settings: Striatum, Membrane
# [3] = target: T2, Adenosine receptor A3 (Homo sapiens) (UniProt P0DMS8); assay: Percentage inhibition of [125I]AB-MECA binding to human adenosine A3 receptor expressed in CHO cells at 1 uM; type: cell-based
# T2 sequence (whole entry): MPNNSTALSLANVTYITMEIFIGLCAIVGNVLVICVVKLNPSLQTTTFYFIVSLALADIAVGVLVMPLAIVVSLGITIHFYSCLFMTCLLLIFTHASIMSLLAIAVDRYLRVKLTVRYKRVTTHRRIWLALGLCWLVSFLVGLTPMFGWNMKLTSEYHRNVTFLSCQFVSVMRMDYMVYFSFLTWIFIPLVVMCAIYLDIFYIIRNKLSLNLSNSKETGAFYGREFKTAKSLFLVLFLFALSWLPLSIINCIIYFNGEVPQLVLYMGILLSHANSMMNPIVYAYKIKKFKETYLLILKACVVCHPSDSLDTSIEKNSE
# Adenosine receptor A3 = target: T3, Adenosine receptor A3 (Homo sapiens, UniProt P0DMS8); assay: Displacement of [125I]AB-MECA from human adenosine A3 receptor expressed in CHO cells; type: cell-based
# T3 sequence (P0DMS8 whole entry): T2 sequence (whole entry)
# Adenosine receptor A1 [4] = target: T4, Adenosine receptor A1 (Bos taurus, UniProt P28190); assay: Displacement of [3H]CHA from adenosine A1 receptor in bovine cerebral cortical membranes; type: cell membranes
# T4 sequence (P28190 whole entry): T1 sequence (whole entry)
# Adenosine receptor A1 [5] = target: T5, Adenosine receptor A1 (Homo sapiens, UniProt P30542); assay: Displacement of [3H]CHA from cloned human adenosine A1 receptor expressed in CHO cells; type: cell-based
# T5 sequence (P30542 whole entry): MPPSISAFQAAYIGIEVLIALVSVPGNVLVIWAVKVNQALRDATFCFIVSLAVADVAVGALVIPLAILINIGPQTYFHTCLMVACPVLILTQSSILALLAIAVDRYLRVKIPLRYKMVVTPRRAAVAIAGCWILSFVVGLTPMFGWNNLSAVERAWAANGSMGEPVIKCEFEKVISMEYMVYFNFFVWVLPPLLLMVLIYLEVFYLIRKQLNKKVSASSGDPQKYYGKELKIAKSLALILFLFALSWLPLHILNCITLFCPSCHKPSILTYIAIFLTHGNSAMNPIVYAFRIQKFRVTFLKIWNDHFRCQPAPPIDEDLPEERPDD
# [6] = target: Adenosine receptors; A1 & A3 (Homo sapiens) (UniProt P30542+P0DMS8); assay: Selectivity for human adenosine A3 receptor over human adenosine A1 receptor; type: protein assay
# [7] = tested on: Adenosine receptor A2a (Bos taurus); assay: Percentage inhibition of [3H]CGS 21680 binding to adenosine A2A receptor in bovine striatal membranes at 34 uM; settings: Striatum, Membrane
# [8] = target: Adenosine receptor A2a (Homo sapiens) (UniProt P29274); assay: Percentage inhibition of [3H]NECA binding to cloned human adenosine A2A receptor expressed in CHO cells at 10 uM; type: cell-based
# [9] = target: T6, Adenosine receptor A1 (Homo sapiens) (UniProt P30542); assay: Percentage inhibition of [3H]CHA binding to cloned human adenosine A1 receptor expressed in CHO cells at 10 uM; type: cell-based
# T6 sequence (whole entry): T5 sequence (P30542 whole entry)
# [10] = Selectivity for human adenosine A3 receptor over human adenosine A2A receptor
# [11] = target: Adenosine receptor A2a (Bos taurus); assay: Displacement of [3H]CGS 21680 from adenosine A2A receptor in bovine striatal membranes
# [12] = target: T1, Adenosine receptor A1 (Bos taurus); assay: Percentage inhibition of [3H]CHA binding to adenosine A1 receptor in bovine cerebral cortical membranes at 34 uM; type: cell membranes
# [13] = target: T1, Adenosine receptor A1 (Bos taurus); assay: Percentage inhibition of [3H]CHA binding to adenosine A1 receptor in bovine cerebral cortical membranes at 10 uM; type: cell membranes
# Sequence of Adenosine receptor A2a (Homo sapiens) (P29274 whole entry): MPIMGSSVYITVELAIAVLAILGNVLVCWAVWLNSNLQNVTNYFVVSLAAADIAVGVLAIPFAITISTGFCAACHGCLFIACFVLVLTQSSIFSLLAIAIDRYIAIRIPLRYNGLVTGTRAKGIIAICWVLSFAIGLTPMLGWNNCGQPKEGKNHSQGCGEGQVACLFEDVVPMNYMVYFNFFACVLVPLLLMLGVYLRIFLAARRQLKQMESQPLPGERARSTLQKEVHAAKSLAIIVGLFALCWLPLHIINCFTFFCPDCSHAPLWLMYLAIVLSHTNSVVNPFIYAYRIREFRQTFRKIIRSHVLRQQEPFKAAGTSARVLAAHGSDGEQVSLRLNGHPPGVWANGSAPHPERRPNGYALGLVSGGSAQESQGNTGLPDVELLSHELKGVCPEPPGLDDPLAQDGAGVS
inhibition [1] [%],inhibition [2] [%],Ki (Adenosine receptor A3) [nM],Ki (Adenosine receptor A1 [4]) [nM],Compound,also measured
15,17,–,–,NC(=O)c1nc2c(O)nc3ccccc3n2n1,inhibition [3]: 32%
–,–,82,578,O=C(NCc1ccccc1)c1nc2c(=O)[nH]c3ccccc3n2n1,Ki (Adenosine receptor A1 [5]): 205 nM
0,23,–,–,Oc1nc2ccc(Cl)cc2n2ncnc12,inhibition [3]: 18.8%
29,20,–,–,Oc1nc2ccccc2n2ncnc12,inhibition [3]: 53%
–,–,673,14200,CCOC(=O)c1nc2c(=O)[nH]c3ccc(NC(C)=O)cc3n2n1,–
14,4,28.2,–,CCOC(=O)c1nc2c(=O)n(C(=O)OCC)c3ccccc3n2n1,inhibition [9]: 12%; inhibition [8]: 9%; Ratio Ki [6]: > 350; Ratio Ki [10]: > 350
–,25,–,–,Cc1ccc2nc(O)c3nc(-c4ccccc4)nn3c2c1,–
–,–,–,5,CCOC(=O)c1nc2c(N)nc3ccc(Cl)cc3n2n1,inhibition [3]: 15%; Ki [11]: 4900 nM
64,32.7,25,–,CCOC(=O)c1nc2c(O)nc3ccc(N)cc3n2n1,inhibition [9]: 33%; inhibition [8]: 22%; Ratio Ki [6]: > 400; Ratio Ki [10]: > 400
–,8.8,–,1080,Cn1c(=O)c2nc(-c3ccccc3)nn2c2ccccc21,inhibition [3]: 30%
–,–,396,268,O=c1[nH]c2ccccc2n2nc(-c3ccccc3)nc12,–
–,47,51.6,3220,O=C(OCc1ccccc1)c1nc2c(O)nc3ccccc3n2n1,inhibition [9]: 33%; inhibition [8]: 27%; Ratio Ki [6]: > 200; Ratio Ki [10]: > 200
–,–,6,3660,Oc1nc2ccc(Cl)cc2n2nc(-c3ccco3)nc12,Ki (Adenosine receptor A1 [5]): 2740 nM; inhibition [8]: 33%; Ratio Ki [6]: 457; Ratio Ki [10]: > 1700; Ki [11]: 5160 nM
8,0,–,–,CCOC(=O)c1nc2c(=O)n(C)c3ccc(Cl)cc3n2n1,inhibition [3]: 60%
–,–,2.5,1440,COc1ccc(-c2nc3c(O)nc4ccc(C)cc4n3n2)cc1,Ki (Adenosine receptor A1 [5]): 2.86 nM; Ratio Ki [6]: 1.1; inhibition [7]: 5%
–,–,108,–,CCOC(=O)c1nc2c(=O)[nH]c3ccc(C)cc3n2n1,–
26,3.6,70.8,–,CCOC(=O)c1nc2c(O)nc3ccccc3n2n1,inhibition [9]: 5%; inhibition [8]: 0%; Ratio Ki [6]: > 150; Ratio Ki [10]: > 150

# More lines, now with the values behind:
Compound,inhibition [1] [%],inhibition [2] [%],Ki (Adenosine receptor A3) [nM],Ki (Adenosine receptor A1 [4]) [nM],also measured
CCOC(=O)c1nc2c(O)nc3ccc(C)cc3n2n1,41,6.5,–,–,–
CCOC(=O)c1nc2c(=O)[nH]c3ccc(Cl)cc3n2n1,–,–,557,–,–
Oc1nc2ccccc2n2nc(-c3ccccc3)nc12,–,7,–,–,–
Oc1nc2ccccc2n2nc(-c3cccs3)nc12,–,–,2,2940,Ki (Adenosine receptor A1 [5]): 2 nM; Ratio Ki [6]: 1; inhibition [7]: 54%
CCOC(=O)c1nc2c(O)nc3ccc(Cl)cc3n2n1,20,–,–,–,inhibition [7]: 7%
COc1ccc(-c2nc3c(N)nc4ccc(Cl)cc4n3n2)cc1,–,–,2.9,150,Ki (Adenosine receptor A1 [5]): 36 nM; inhibition [8]: 21%
CCOC(=O)c1nc2c(=O)[nH]c3cc(N)ccc3n2n1,–,–,354,–,–
O=c1[nH]c2ccc(Cl)cc2n2nc(-c3cccs3)nc12,–,–,257,–,–
CCOC(=O)c1nc2c(=O)n(C)c3ccccc3n2n1,6.4,–,820,–,–
Oc1nc2ccc(Cl)cc2n2nc(-c3ccccc3)nc12,–,–,163,2400,–
CCOC(=O)c1nc2c(O)nc3cc(N)ccc3n2n1,43,9,–,–,–
Cn1c(=O)c2nc(-c3ccccc3)nn2c2cc(Cl)ccc21,18,0,–,–,inhibition [3]: 19%
Cc1ccc2[nH]c(=O)c3nc(-c4ccccc4)nn3c2c1,–,–,111,525,–
Oc1nc2ccc(Cl)cc2n2nc(-c3ccoc3)nc12,–,–,78,1950,Ki (Adenosine receptor A1 [5]): 125 nM; Ratio Ki [6]: 1.6; inhibition [7]: 25.3%
O=c1[nH]c2ccc(Cl)cc2n2nc(-c3ccsc3)nc12,–,–,126,1000,–
COc1ccc(-c2nc3c(=O)[nH]c4ccc(Cl)cc4n3n2)cc1,–,–,25.8,1060,Ki (Adenosine receptor A1 [5]): 3.29 nM
Cc1ccc2c(c1)n1nc(-c3ccccc3)nc1c(=O)n2C,–,–,308,508,–
Oc1nc2ccccc2n2nc(-c3ccco3)nc12,–,–,33,–,Ki (Adenosine receptor A1 [5]): 1930 nM
O=C(NCc1ccccc1)c1nc2c(O)nc3ccccc3n2n1,–,27,–,–,Ratio Ki [6]: 2.5
Cn1c(=O)c2ncnn2c2cc(Cl)ccc21,11,8.9,–,–,inhibition [3]: 0%
Oc1nc2ccc(Cl)cc2n2nc(-c3cccs3)nc12,–,–,–,–,inhibition [12]: 54.2%
CCOC(=O)c1nc2c(=O)n(O)c3ccccc3n2n1,–,–,–,–,inhibition [12]: 6.9%; inhibition [3]: 20%; inhibition [7]: 2%
CC(C)OC(=O)c1nc2c(O)nc3ccccc3n2n1,0,2.9,420,–,–
O=C(O)c1nc2c(O)nc3ccccc3n2n1,–,–,–,–,inhibition [12]: 10%; inhibition [3]: 6.4%; inhibition [7]: 0%
CCOC(=O)c1nc2c(O)nc3cc(Cl)ccc3n2n1,48,15.2,340,–,–
CCOC(=O)c1nc2c(=O)n(CC)c3ccccc3n2n1,–,–,–,–,inhibition [12]: 13.3%; inhibition [3]: 0%; inhibition [7]: 20.5%
Nc1nc2ccc(Cl)cc2n2nc(-c3ccccc3)nc12,–,–,91.4,50,–
CCOC(=O)c1nc2c(O)nc3ccc([N+](=O)[O-])cc3n2n1,–,7.4,–,–,inhibition [13]: 58%; inhibition [3]: 0%
COc1ccc(-c2nc3c(O)nc4ccccc4n3n2)cc1,–,–,–,–,inhibition [12]: 0%; inhibition [9]: 32%; inhibition [8]: 49%
